For data set [1], the system named is human hepatocarcinoma cell line HepG2. The settings on record: cited from earlier work.

As a reminder, the melting point is the temperature of the solid-liquid transition. A word on the IC50: it is the concentration at which inhibition is half-maximal.

In turn, `CC(C)(C)ON1CCN(c2ccc(C(F)(F)F)cc2)CC1` yielded a melting point of 77.6 to 78.8 °C.

As for `CC(C)(C)ON1CCN(c2cccc(Cl)c2Cl)CC1`, the melting point lay within 92 to 93 °C.

As for 10-aza-9-oxakalkitoxin, in data set [1], the IC50 is listed as 2.4 ng/mL. For the same molecule, the “activity toward HepG2 relative to kalkitoxin” value in data set [1] (hydroxalog versus parent natural product) is reported as “complete retention of activity”.

kalkitoxin: the IC50 in data set [1] is given as 3.2 ng/mL.
